# Test results from US20250186391A1, “ORAL COMPLEMENT FACTOR D INHIBITORS” (BioCryst Pharmaceuticals, Inc., priority 2019, published 2025).
# Biological target: Factor D (Homo sapiens (Human), UniProt P00746)
# Experiment: Factor D esterolytic assay
# Type: biochemical
# Conditions: Z-Lys-SBzl substrate, 100 mM HEPES, 500 mM NaCl, pH 7.5, 10% DMSO; tested a minimum of three times; read-out: Measured Ki (IC50) Value for Compounds: IC50
# Outline: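 Chromogenic thioesterase read-out: Z-Lys-SBzl (1.29 mM) hydrolysis by human Factor D, thiol detected with DTNB at 405 nm (690 nm background subtracted) for 600 s. Run in 100 mM HEPES, 500 mM NaCl, pH 7.5, 10% DMSO, substrate added immediately or after room-temperature preincubation. IC50 from percent inhibition versus enzyme alone, n≥3.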
# Sequence of Factor D (P00746 26-253): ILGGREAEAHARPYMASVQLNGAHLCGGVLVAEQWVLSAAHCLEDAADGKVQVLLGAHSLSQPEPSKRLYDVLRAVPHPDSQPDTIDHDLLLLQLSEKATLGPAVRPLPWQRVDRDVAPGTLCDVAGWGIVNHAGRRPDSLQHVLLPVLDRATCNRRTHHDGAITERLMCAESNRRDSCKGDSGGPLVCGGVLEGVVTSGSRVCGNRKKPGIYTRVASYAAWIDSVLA
row,SMILES,IC50 [µM]
1,"C[C@@H]1CN(Cc2cc(-c3cccc(CN)c3)cc3c(COc4ccccc4CC(=O)O)coc23)C[C@H](C)O1 [Compound 208d, 2-(2-((5-(3-(aminomethyl)phenyl)-7-(((2R,6S)-2,6-dimethylmorpholino)methyl)benzofuran-3-yl)methoxy)phenyl)acetic acid]",< 1
2,"CN1CCN(Cc2ccc(-c3cc(-c4cccc(CN)c4)cc4c(COc5ccccc5CC(=O)O)coc34)cc2)CC1 [Compound 116d, 2-(2-((5-(3-(aminomethyl)phenyl)-7-(4-((4-methylpiperazin-1-yl)methyl)phenyl)benzofuran-3-yl)methoxy)phenyl)acetic acid]",< 1
3,"CC(C(=O)O)c1ccccc1OCc1coc2c(NCC3CCCC3)cc(-c3cccc(CN)c3)cc12 (centres unmarked) [Compound 186c, 2-(2-((5-(3-(aminomethyl)phenyl)-7-((cyclopentylmethyl)amino)benzofuran-3-yl)methoxy)phenyl)propanoic acid]",< 1
4,"NCc1cccc(-c2ccc3c(c2)c(COc2ccccc2CC(=O)O)nn3C2CC2)c1 [Compound 260c, 2-(2-((5-(3-(aminomethyl)phenyl)-1-cyclopropyl-1H-indazol-3-yl)methoxy)phenyl)acetic acid]",< 1
5,"COc1ccc(CC(=O)O)c(OCc2c(C(O)C(F)(F)F)oc3ccc(-c4cccc(CN)c4)cc23)c1 (centres unmarked) [Compound 216c, 2-(2-((5-(3-(aminomethyl)phenyl)-2-(2,2,2-trifluoro-1-hydroxyethyl)benzofuran-3-yl)methoxy)-4-methoxyphenyl)acetic acid]",< 1
6,"NCc1cccc(-c2cccc3cc(COc4ccccc4CCC(=O)O)oc23)c1 [Compound 35c, 3-(2-((7-(3-(aminomethyl)phenyl)benzofuran-2-yl)methoxy)phenyl)propanoic acid]",> 10
7,"NCc1cccc(-c2ccc3occ(COc4cc(Br)ccc4CC(=O)O)c3c2)c1 [Compound 192b, 2-(2-((5-(3-(aminomethyl)phenyl)benzofuran-3-yl)methoxy)-4-bromophenyl)acetic acid]",< 1
8,"Cc1cc(-c2cc(-c3cccc(CN)c3)cc3c(COc4ccccc4CC(=O)O)coc23)cn(C)c1=O [Compound 224c, 2-(2-((5-(3-(aminomethyl)phenyl)-7-(1,5-dimethyl-6-oxo-1,6-dihydropyridin-3-yl)benzofuran-3-yl)methoxy)phenyl)acetic acid]",< 1
9,"NCc1cccc(-c2ccc3occ(COc4ccccc4CC(=O)O)c3c2)c1 [Compound 9e, 2-(2-((5-(3-(aminomethyl)phenyl)benzofuran-3-yl)methoxy)phenyl)acetic acid]",< 1
10,"NCc1cccc(-c2cc(Cl)c3occ(COc4ccccc4CC(=O)O)c3c2)c1 [Compound 127f, 2-(2-((5-(3-(aminomethyl)phenyl)-7-chlorobenzofuran-3-yl)methoxy)phenyl)acetic acid]",< 1
11,"COc1cc(-c2cccc(CN)c2)cc2c(COc3c(C)cccc3CC(=O)O)coc12 [Compound 237c, 2-(2-((5-(3-(aminomethyl)phenyl)-7-methoxybenzofuran-3-yl)methoxy)-3-methylphenyl)acetic acid]",< 1
12,"NCc1cccc(-c2ccc3oc(C(=O)NC4CC4)c(COc4ccccc4CC(=O)O)c3c2)c1 [Compound 64h, 2-(2-((5-(3-(aminomethyl)phenyl)-2-(cyclopropylcarbamoyl)benzofuran-3-yl)methoxy)phenyl)acetic acid]",< 1
13,"NCc1cccc(-c2ccc3c(c2)c(COc2ccccc2CC(=O)O)nn3-c2ccccc2)c1 [Compound 144h, 2-(2-((5-(3-(aminomethyl)phenyl)-1-phenyl-1H-indazol-3-yl)methoxy)phenyl)acetic acid]",< 1
14,"NCc1cccc(-c2cccc3cc(COc4ccccc4CCC(=O)O)ccc23)c1 [Compound 43c, 3-(2-((5-(3-(aminomethyl)phenyl)naphthalen-2-yl)methoxy)phenyl)propanoic acid]",> 10
15,"COc1ccc(CC(=O)O)c(OCc2coc3c(NCC(C)C)cc(-c4cccc(CN)c4)cc23)c1 [Compound 279c, 2-(2-((5-(3-(aminomethyl)phenyl)-7-(isobutylamino)benzofuran-3-yl)methoxy)-4-methoxyphenyl)acetic acid]",< 1
16,"CC(C)n1cc(-c2cc(-c3cccc(CN)c3)cc3c(COc4ccccc4CC(=O)O)coc23)cn1 [Compound 130c, 2-(2-((5-(3-(aminomethyl)phenyl)-7-(1-isopropyl-1H-pyrazol-4-yl)benzofuran-3-yl)methoxy)phenyl)acetic acid]",< 1
17,"NCc1cccc(-c2cc(C(=O)NCC3CC3)cc3cc(COc4ccccc4CC(=O)O)oc23)c1 [Compound 32d, 2-(2-((7-(3-(aminomethyl)phenyl)-5-((cyclopropylmethyl)carbamoyl)benzofuran-2-yl)methoxy)phenyl)acetic acid]",< 1
18,"COc1cc(-c2cccc(CN)c2)cc2c(COc3cc(C)ccc3CC(=O)O)coc12 [Compound 252c, 2-(2-((5-(3-(aminomethyl)phenyl)-7-methoxybenzofuran-3-yl)methoxy)-4-methylphenyl)acetic acid]",< 1
19,"NCc1cccc(-c2cc(CNCC3CC3)cc3cc(COc4ccccc4CC(=O)O)oc23)c1 [Compound 11d, 2-(2-((7-(3-(aminomethyl)phenyl)-5-(((cyclopropylmethyl)amino)methyl)benzofuran-2-yl)methoxy)phenyl)acetic acid]",< 1
20,"NCc1cccc(-c2cccc3c(COc4ccccc4CC(=O)O)coc23)c1 [Compound 36e, 2-(2-((7-(3-(aminomethyl)phenyl)benzofuran-3-yl)methoxy)phenyl)acetic acid]",> 10
21,"NCc1cccc(-c2cc3c(COc4ccccc4CC(=O)O)coc3c3ccoc23)c1 [Compound 123g, 2-(2-((5-(3-(aminomethyl)phenyl)benzo[1,2-b:3,4-b′]difuran-3-yl)methoxy)phenyl)acetic acid]",< 1
22,"CCn1cc(-c2cc(-c3cccc(CN)c3)cc3c(COc4ccccc4CC(=O)O)coc23)cn1 [Compound 128c, 2-(2-((5-(3-(aminomethyl)phenyl)-7-(1-ethyl-1H-pyrazol-4-yl)benzofuran-3-yl)methoxy)phenyl)acetic acid]",< 1
23,"NCc1cc(-c2ccc3occ(COc4ccccc4CC(=O)O)c3c2)ccn1 [Compound 53b, 2-(2-((5-(2-(aminomethyl)pyridin-4-yl)benzofuran-3-yl)methoxy)phenyl)acetic acid]",< 1
24,"COc1ccc(CC(=O)O)c(OCc2nn(C)c3ccc(-c4ccnc(CN)c4F)cc23)c1 [Compound 316c, 2-(2-((5-(2-(aminomethyl)-3-fluoropyridin-4-yl)-1-methyl-1H-indazol-3-yl)methoxy)-4-methoxyphenyl)acetic acid]",< 1
25,"NCc1cccc(-c2ccc3occ(COc4c(CC(=O)O)cccc4C(N)=O)c3c2)c1 [Compound 114i, 2-(2-((5-(3-(aminomethyl)phenyl)benzofuran-3-yl)methoxy)-3-carbamoylphenyl)acetic acid]",1 to 10
26,"CCc1oc2ccc(-c3cccc(CN)c3)cc2c1COc1cc(C)ccc1CC(=O)O [Compound 319c, 2-(2-((5-(3-(aminomethyl)phenyl)-2-ethylbenzofuran-3-yl)methoxy)-4-methylphenyl)acetic acid]",< 1
